Assay results reported in paper PMC11477289, “Low-Basicity 5-HT6 Receptor Ligands from the Group of Cyclic Arylguanidine Derivatives and Their Antiproliferative Activity Evaluation” (International Journal of Molecular Sciences, 2024).

Experiments:
HSA and AGP (24:1) = experiment: Plasma protein binding, TRANSIL XL PPB assay; settings: human, TRANSIL XL PPB assay: HSA and AGP in a 24:1 ratio
PAMPA permeability test = type: in vitro ADME
Experimental: This test allows the determination of the compound’s passive diffusion through biological membranes.
Precoated PAMPA Plate System Gentest was obtained from Corning (Tewksbury, MA, USA). Test compounds and caffeine solutions (200 µM) were prepared in a PBS buffer (pH = 7.4) and then added to the PAMPA plate. The plate was incubated at room temperature for 5 h without agitation. Then, 150 µL was aspirated from both acceptor (A) and donor (D) wells and then diluted with a 150 µL internal standard (IS) solution. The concentrations of the tested compounds in wells A and D were estimated using an LC/MS Waters ACQUITY™ TQD system with a TQ detector (Waters, Milford, CT, USA). The values of Pe were estimated according to the exact formulas provided by Corning and previously described in the literature.
4. Absorption – PAMPA permeability test
*Permeability coefficient. Compound is permeable if Pe≥1.5×10-6 cm/s
**CFN = caffeine, well-permeable control
UPLC of Caffeine solution in PBS (pH=7.4) after 5h of incubation: acceptor well
(above), donor well (below). IS – internal standard.
UPLC of PR 68 solution in PBS (pH=7.4) after 5h of incubation: acceptor well (above),
donor well (below). IS – internal standard. […]

CC1NC(NS(=O)(=O)c2cccc3ccccc23)=Nc2cccc(Cl)c21 (centres unmarked) [PR 68, N -(5-chloro-4-methyl-3,4-dihydroquinazolin-2-yl)naphthalene-1-sulfonamide]
Kd at 12 min, 20 µM (HSA and AGP (24:1)): 1400 nM | fraction unbound at 12 min, 20 µM (HSA and AGP (24:1)): 0.002 | membrane retention R (PAMPA permeability test; PAMPA): 0.65 | Papp at 5 h, 200 µM (PAMPA permeability test; PAMPA, PBS pH 7.4, 5 h, room temperature, read-out: PAMPA Pe): 1.72 ×10⁻⁶ cm/s | PAMPA Pe (PAMPA permeability test; PBS pH 7.4, 5 h, room temperature): 1.72 10^−6 cm/s
